{"source": "patent US20220117964A1", "about": "“COMBINATION OF FAK INHIBITOR AND BTK INHIBITOR FOR TREATING A DISEASE” (ASCENTAGE PHARMA (SUZHU) CO., LTD., priority 2019, published 2022)", "tested_on": "phosphorylated-AKT (p-AKT, Ser397)", "test": "Western blot, KYSE-150 and KYSE-520 cells", "format": "cell-based", "details": "KYSE-150 (1 μM Compound 5, 1 μM Ibrutinib) and KYSE-520 (1 μM Compound 5, 0.5 μM Ibrutinib), 24 hours", "description": "The cells were lysed on ice with 1× cell lysis buffer containing 1% protease inhibitor (PMSF) and 1% phosphokinase inhibitor for 30 minutes, centrifuged at 12000 rpm and 4° C. for 15 minutes, and the supernatant protein lysate was collected. The protein concentration was measured by BCA protein concentration detection kit. The cell protein lysates (20 to 50 μg) were separated using 8-12% SDS-PAGE electrophoresis. The separated proteins were transferred to a PVDF membrane. The PVDF membrane was blocked with 5% BSA buffer at room temperature for 30 minutes to 1 hour, and then incubated overnight on a 4° C. shaker with 1× TBST containing primary antibody. The redundant primary antibody was eluted, and the membrane was washed 3 times with 1× TBST, 5 to 10 minutes for each time. The protein band membrane was incubated with horseradish peroxidase-labeled secondary antibody dilution for 1 hour at room temperature, and the membrane was washed 3 times with 1× TBST, 5 to 10 minutes for each time. The signal generation and detection were performed using an ECL chemiluminescence ultrasensitive colorimetric kit and a chemiluminescence imaging system. […]\n(1) The experimental method was as described in the items (1), (2), (5) of Example 2. […] The changes in signaling pathway of related proteins were determined by Western blotting assay."}
{"smiles": "Cc1cc(Nc2ncc(Cl)c(Nc3ccccc3S(=O)(=O)C(C)C)n2)c(OC(C)C)cc1C1=CCN(C2CCOCC2)CC1", "note": "[Compound 5, 5-chloro-N^2-(2-isopropoxy-5-methyl-4-(1-(tetrahydro-2H-pyran-4-yl)-1,2,3,6-tetrahydropyridin-4-yl)phenyl)-N^4-(2-(isopropylsulfonyl)phenyl)pyrimidine-2,4-diamine]", "values": [{"measurement": "protein expression level of phosphorylated-AKT (p-AKT, Ser397)", "result": "significantly decrease"}]}
